We go through 73 molecules from ChEMBL document CHEMBL3714725, “Diaminopyrimidines as P2X3 and P2X2/3 modulators” (2010).

Activity calls are given as the source filed them. How the calls were made is not given here.

Data set [1] has as its target T1, P2X purinoceptor 3 (Rattus norvegicus) (UniProt P49654).
T1 sequence (whole entry): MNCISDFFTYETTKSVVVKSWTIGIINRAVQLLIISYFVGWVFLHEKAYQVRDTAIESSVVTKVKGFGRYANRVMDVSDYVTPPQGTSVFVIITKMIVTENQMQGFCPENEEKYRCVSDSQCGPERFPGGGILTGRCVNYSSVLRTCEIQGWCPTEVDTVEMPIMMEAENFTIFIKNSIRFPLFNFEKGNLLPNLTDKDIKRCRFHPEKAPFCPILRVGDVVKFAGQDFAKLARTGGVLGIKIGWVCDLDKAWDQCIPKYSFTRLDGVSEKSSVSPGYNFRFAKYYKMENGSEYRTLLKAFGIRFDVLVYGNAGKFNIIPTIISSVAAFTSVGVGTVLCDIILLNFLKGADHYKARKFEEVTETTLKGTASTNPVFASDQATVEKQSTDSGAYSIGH
In words: Antagonist activity against rat P2X3 receptor expressed in CHOK1 cells assessed as inhibition of alpha,beta-meATP-induced calcium response incubated for 20 mins by Fluo-3AM dye based FLIPR assay. The note with it: CHO-K1. The format is functional, cell-based.

For data set [2], the system named is Rattus norvegicus. In words: Cmax in Crl:WI(GLx/BRL/Han)IGS BR(Hanover-Wistar) rat assessed as (5-(5-Iodo-2-isopropyl-4-methoxy-phenoxy)-pyrimidine-2,4-diamine) level at 0.127 mmol, po after 0.5 to 24 hrs by HPLC method. It is filed as ADME, organism-based. The arrangement: dose 0.127 mmol, route oral. The note with it: in vivo.
In data set [3] the test system is Rattus norvegicus. In words: AUC in Crl:WI(GLx/BRL/Han)IGS BR(Hanover-Wistar) rat assessed as (5-(5-Iodo-2-isopropyl-4-methoxy-phenoxy)-pyrimidine-2,4-diamine) level at 0.127 mmol, po after 0.5 to 24 hrs by HPLC method. It is filed as ADME, organism-based. The arrangement: time upper 24 hr, time lower 0.5 hr, dose 0.127 mmol, route oral. To be noted: in vivo.

Consider `CC[C@@H](C)[C@@H](N)C(=O)Nc1ncc(Oc2cc(I)c(OC)cc2C(C)C)c(N)n1`, for which the inhibition result in data set [1] is “Active”.
As for `COc1cc(C(C)C)c(Oc2cnc(NC(=O)CCC(=O)O)nc2N)cc1I`, the inhibition entry in data set [1] is “Active”.
Same read-out and setting: the result for `COc1cc(C(C)C)c(Oc2cnc(NC(=O)C(C)(C)C)nc2N)cc1I` reads “Active”.
In the case of `COc1cc(C(C)C)c(Oc2cnc(NC(=O)N3CCCCC3)nc2N)cc1I`, the inhibition entry in data set [1] was “Active”.
For the molecule `COc1cc(C(C)C)c(Oc2cnc(NC(=O)C(C)(C)OC(C)=O)nc2N)cc1I`, the inhibition result in data set [1] was “Active”.
The same measure, in the same setting: then `COc1cc(C(C)C)c(Oc2cnc(NC(=O)c3ccccc3)nc2N)cc1I`, with “Active”; and `CCC(C)(C)C(=O)Nc1ncc(Oc2cc(I)c(OC)cc2C(C)C)c(N)n1`, with “Active”; and `COc1cc(C(C)C)c(Oc2cnc(NC(=O)c3cnc(C)cn3)nc2N)cc1I`, with “Active”.
The same measure, in the same setting: the result for `COc1cc(C(C)C)c(Oc2cnc(N)nc2NC(=O)c2ccccn2)cc1I` reads “Active”.
As for `C#Cc1cc(Oc2cnc(NC(C)=O)nc2N)c(C(C)C)cc1OC`, the inhibition entry in data set [1] was “Active”.
Take `C#Cc1cc(Oc2cnc(NC(=O)CCC)nc2N)c(C(C)C)cc1OC`: the inhibition result in data set [1] is “Active”.
On the same count and under the same terms, then `COc1cc(C(C)C)c(Oc2cnc(NC(=O)C3CCCN3C(C)=O)nc2N)cc1I` (centres undefined), with “Active”; and `COc1cc(C(C)C)c(Oc2cnc(NC(C)=O)nc2NC(C)=O)cc1I`, with “Active”.
The same measure, in the same setting: the result for `COc1cc(C(C)C)c(Oc2cnc(N)nc2NC(=O)C2CCOCC2)cc1I` reads “Active”; that for `COc1cc(C(C)C)c(Oc2cnc(NC(=O)N3CCN(C)CC3)nc2N)cc1I`, “Active”.
For `COc1cc(C(C)C)c(Oc2cnc(N)nc2NC(=O)c2cccn2C)cc1I`, the inhibition result in data set [1] was “Active”.
The same measure, in the same setting: the result for `COc1cc(C(C)C)c(Oc2cnc(NC(=O)Cc3cccnc3)nc2N)cc1I` reads “Active”.
Regarding `COCC(=O)Nc1ncc(Oc2cc(I)c(OC)cc2C(C)C)c(N)n1`, the inhibition entry in data set [1] is “Active”.
Regarding `COc1cc(C(C)C)c(Oc2cnc(NC(=O)C(C)(C)O)nc2N)cc1I`, in data set [1], the inhibition entry is “Active”.
The same measure, in the same setting: then `COc1cc(C(C)C)c(Oc2cnc(NC(=O)C3CCN(C(C)=O)CC3)nc2NC(=O)C2CCN(C(C)=O)CC2)cc1I`, with “Active”; and `COc1cc(C(C)C)c(Oc2cnc(NC(=O)[C@@H]3CCCN3)nc2N)cc1I`, with “Active”; and `COc1cc(C(C)C)c(Oc2cnc(N)nc2NC(=O)C2CCN(C(C)=O)CC2)cc1I`, with “Active”.
For the molecule `COc1cc(C(C)C)c(Oc2cnc(NC(=O)[C@@H]3CCCO3)nc2N)cc1I`, in data set [1], the inhibition entry was “Active”.
The same measure, in the same setting: then `COc1cc(C(C)C)c(Oc2cnc(NC(=O)c3ccco3)nc2N)cc1I`, with “Active”; and `COc1cc(C(C)C)c(Oc2cnc(N)nc2NC(=O)c2cnccn2)cc1I`, with “Active”; and `COc1cc(C(C)C)c(Oc2cnc(NC(=O)c3cnc[nH]3)nc2N)cc1I`, with “Active”.
The Cmax is the maximum level reached in the sampled fluid or tissue. The term AUC denotes concentration integrated over time. Take `COc1cc(C(C)C)c(Oc2cnc(NC(=O)C(C)C)nc2N)cc1I`: the Cmax in data set [2] stood at 61.9 ng/mL. In data set [3], the AUC is 200 ng·h/mL.
`CCC(C)(C)C(=O)Nc1nc(N)ncc1Oc1cc(I)c(OC)cc1C(C)C`: in data set [1], the inhibition entry is “Active”.
On the same count and under the same terms, then `COc1cc(C(C)C)c(Oc2cnc(NC(C)=O)nc2N)cc1I`, with “Active”.
Same read-out and setting: then `COc1cc(C(C)C)c(Oc2cnc(NC(=O)c3cnccn3)nc2N)cc1I`, with “Active”; and `COc1cc(C(C)C)c(Oc2cnc(NC(=O)c3ccccn3)nc2N)cc1I`, with “Active”.
Consider `COc1cc(C(C)C)c(Oc2cnc(N)nc2NC(=O)c2cnc[nH]2)cc1I`, for which the inhibition result in data set [1] was “Active”.
As for `COCCOCC(=O)Nc1nc(N)ncc1Oc1cc(I)c(OC)cc1C(C)C`, in data set [1], the inhibition entry was “Active”.
Still for that read-out and setting: then `COCCOCC(=O)Nc1ncc(Oc2cc(I)c(OC)cc2C(C)C)c(N)n1`, with “Active”; and `COc1cc(C(C)C)c(Oc2cnc(NC(=O)C(N)C(C)C)nc2N)cc1I` (centres undefined), with “Active”.
In the case of `CCCCC(=O)Nc1ncc(Oc2cc(I)c(OC)cc2C(C)C)c(N)n1`, in data set [1], the inhibition result is “Active”.
Same read-out and setting: then `COc1cc(C(C)C)c(Oc2cnc(NC(=O)COC(C)=O)nc2NC(=O)COC(C)=O)cc1I`, with “Active”.
Same read-out and setting: the result for `COc1cc(C(C)C)c(Oc2cnc(NC(=O)OCC(C)C)nc2N)cc1I` reads “Active”.
Still for that read-out and setting: the result for `COc1cc(C(C)C)c(Oc2cnc(NC(=O)CC(C)C)nc2N)cc1I` reads “Active”; that for `COc1cc(C(C)C)c(Oc2cnc(N)nc2NC(=O)C2CCN(C)CC2)cc1I`, “Active”.
Take `COc1cc(C(C)C)c(Oc2cnc(N)nc2NC(=O)[C@@H]2CCCO2)cc1I`: the inhibition result in data set [1] was “Active”.
The same measure, in the same setting: the result for `C#Cc1cc(Oc2cnc(N)nc2NC(=O)c2cccn2C)c(C(C)C)cc1OC` reads “Active”; that for `COc1cc(C(C)C)c(Oc2cnc(NC(=O)C(C)C)nc2NC(=O)C(C)C)cc1I`, “Active”.
Consider `C#Cc1cc(Oc2cnc(NC(=O)CC(C)(C)C)nc2N)c(C(C)C)cc1OC`, for which the inhibition result in data set [1] is “Active”.
On to `CC[C@@H](C)[C@@H](N)C(=O)Nc1nc(N)ncc1Oc1cc(I)c(OC)cc1C(C)C`, for which the inhibition entry in data set [1] is “Active”.
On to `COc1cc(C(C)C)c(Oc2cnc(NC(=O)N3CCC(N(C)C)CC3)nc2N)cc1I`, for which the inhibition result in data set [1] was “Active”.
As for `COc1cc(C(C)C)c(Oc2cnc(NC(=O)CO)nc2N)cc1I`, the inhibition entry in data set [1] was “Active”.
Regarding `COc1cc(C(C)C)c(Oc2cnc(NC(=O)N3CCC(O)CC3)nc2N)cc1I`, the inhibition result in data set [1] is “Active”.
With `CCOC(=O)Nc1ncc(Oc2cc(I)c(OC)cc2C(C)C)c(N)n1`, in data set [1], the inhibition result was “Active”.
On the same count and under the same terms, the result for `COc1cc(C(C)C)c(Oc2cnc(NC(=O)N3CCOCC3)nc2NC(=O)N2CCOCC2)cc1I` reads “Active”; that for `COc1cc(C(C)C)c(Oc2cnc(N)nc2NC(=O)c2ccccc2)cc1I`, “Active”; that for `CCCCC(=O)Nc1ncc(Oc2cc(I)c(OC)cc2C(C)C)c(NC(=O)CCCC)n1`, “Active”.
Still for that read-out and setting: the result for `CCC(C)C(=O)Nc1ncc(Oc2cc(I)c(OC)cc2C(C)C)c(N)n1` (centres undefined) reads “Active”; that for `COc1cc(C(C)C)c(Oc2cnc(NC(=O)N3CCC(C)CC3)nc2N)cc1I`, “Active”.
Same read-out and setting: the result for `COc1cc(C(C)C)c(Oc2cnc(NC(=O)[C@H](N)[C@H](C)C(C)C)nc2N)cc1I` reads “Active”; that for `COc1cc(C(C)C)c(Oc2cnc(NC(=O)C3CCN(C)CC3)nc2N)cc1I`, “Active”; that for `C#Cc1cc(Oc2cnc(N)nc2NC(=O)c2ccccc2)c(C(C)C)cc1OC`, “Active”.
For `COc1cc(C(C)C)c(Oc2cnc(NC(=O)c3ccnnc3)nc2N)cc1I`, the inhibition entry in data set [1] was “Active”.
`COc1cc(C(C)C)c(Oc2cnc(NC(=O)CC(C)C)nc2NC(=O)CC(C)C)cc1I`: the inhibition result in data set [1] is “Active”.
Same read-out and setting: the result for `COc1cc(C(C)C)c(Oc2cnc(N)nc2NC(=O)C(C)(C)C)cc1I` reads “Active”.
Still for that read-out and setting: the result for `C#Cc1cc(Oc2cnc(N)nc2NC(=O)CCC)c(C(C)C)cc1OC` reads “Active”; that for `COc1cc(C(C)C)c(Oc2cnc(NC(=O)c3cccnc3)nc2N)cc1I`, “Active”; that for `C#Cc1cc(Oc2cnc(NC(=O)c3ccccc3)nc2N)c(C(C)C)cc1OC`, “Active”.
Same read-out and setting: the result for `C#Cc1cc(Oc2cnc(NC(=O)C(C)(C)C)nc2NC(=O)C(C)(C)C)c(C(C)C)cc1OC` reads “Active”; that for `CCCC(=O)Nc1ncc(Oc2cc(I)c(OC)cc2C(C)C)c(NC(=O)CCC)n1`, “Active”.
For the molecule `COc1cc(C(C)C)c(Oc2cnc(NC(=O)N3CCOCC3)nc2N)cc1I`, in data set [1], the inhibition result was “Active”.
For `COc1cc(C(C)C)c(Oc2cnc(NC(=O)c3ccncc3)nc2N)cc1I`, in data set [1], the inhibition entry was “Active”.
On to `C#Cc1cc(Oc2cnc(N)nc2NC(=O)CC(C)(C)C)c(C(C)C)cc1OC`, for which, in data set [1], the inhibition result is “Active”.
With `COc1cc(C(C)C)c(Oc2cnc(N)nc2NC(=O)c2ccco2)cc1I`, the inhibition result in data set [1] is “Active”.
Take `CCOC(=O)Nc1ncc(Oc2cc(I)c(OC)cc2C(C)C)c(NC(=O)OCC)n1`: in data set [1], the inhibition entry is “Active”.
On the same count and under the same terms, then `COc1cc(C(C)C)c(Oc2cnc(NC(=O)COC(C)=O)nc2N)cc1I`, with “Active”.
Same read-out and setting: the result for `CCCC(=O)Nc1ncc(Oc2cc(I)c(OC)cc2C(C)C)c(N)n1` reads “Active”; that for `COc1cc(C(C)C)c(Oc2cnc(N)nc2NC(=O)c2cnc(C)cn2)cc1I`, “Active”.
